Measurements taken from US20240336588A1, “COMPOSITIONS AND METHODS FOR ANTIOXIDANT AND ANTI-INFLAMMATORY THERAPEUTICS” (AVANTI BIOSCIENCES INC., priority 2021, published 2024).
pIC50: −log10 of the molar value. Like-named read-outs stand apart in the source and are kept apart here.

Tests used:
[1] = target: DYRK2 (Homo sapiens (Human), UniProt Q92630); conditions: literature value; cited from earlier work
[2] = tested on: MOG35-55-induced chronic progressive Experimental Autoimmune Encephalomyelitis (EAE); assay: MOG35-55-induced murine model of chronic progressive EAE; format: in vivo, mice
Source text: Compound 40 of Table 1 was examined for application in neurodegenerative disorders using a MOG35-55-induced murine model of chronic progressive Experimental Autoimmune Encephalomyelitis (EAE), an inflammation model predictive for multiple sclerosis (MS).
Without being bound by theory, the present inventors note that compound 40 could have a peripheral immunomodulation effect and an overall neuroprotective effect, which could have advantageous implications for the treatment of neurodegenerative disorders like Alzheimer's disease and Multiple Sclerosis.

[3] = target: DYRK1B (GST tagged full length human DYRK1B isoform p65) (Homo sapiens (Human), UniProt Q9Y463); assay: DYRK1B ELISA assay; format: biochemical; conditions: 70 ng GST-DYRK1B, kinase reaction time 60 min
Method: (§1) DYRK1A assay. […] After blocking, wells were washed extensively with dilution buffer before subjecting to phosphorylation. […] At the end point, wells were washed with ˜350 μl dilution buffer three times to terminate the reaction. […] Each point was run in quadruplicate with DMSO present in all assays at 0.2% final concentration. […] HT-PRD phosphorylation was subsequently determined by the sandwich antibody staining protocol, first with 100 μl mouse mAb 3D3 specific for detecting DYRK1A-phosphorylated PRD (60 min at room temperature) then with 100 μl alkaline phosphatase (AP)-linked anti-mouse secondary antibody (60 min at room temperature), followed by colorimetric reaction with 100 μl PNPP solution (PNPP substrate tablet, Thermo Fisher). […] The readings were then recorded for subsequent IC50 calculation. The DYRK1A assay protocol can also support DYRK1B and DYRK2 phosphorylation reactions in the enzyme concentration-dependent manner; therefore, the method was adapted for measuring the activity of candidate compounds against DYRK1B and DYRK2. For DYRK2, the reactions were performed as described above with 6 ng HT-DYRK2 (6×His tagged full-length human DYRK2 isoform 1). For DYRK1B, the assays were also similarly conducted but with 70 ng GST-DYRK1B (glutathione S-transferase tagged full length human DYRK1B isoform p65) and an extended kinase reaction time of 60 min.
(§2) Data transformation, calculation, plotting, curve fitting, and IC 50 calculation were performed in KaleidaGraph (http://www.synergy.com/wordpress_650164087; Mac version 4.1). Data was corrected for background (readings from wells with only PNPP) before subsequent manipulations. […] The resulting residual activity was then plotted against its corresponding inhibitor concentrations in semi-log graph and the plot was fit to the sigmoidal equation, y=a+(b−a)/(1+(x/c)^d), for IC50 calculation.
Compounds of Table 1, above, were examined in vitro for activity against DYRK1B, via an ELISA assay.

[4] = target: DYRK1A (HT-497, 6×His tagged rat truncated DYRK1A isoform X1 residues 1-497) (Rattus norvegicus (Rat), UniProt Q63470); assay: DYRK1A ELISA assay (HT-PRD phosphorylation); format: biochemical; conditions: 100 µM ATP, 5 ng HT-497, 30 min at 30° C.
Method: Compounds of Table 1, above, were examined in vitro for activity against DYRK1A, DYRK1B, DYRK2 via an ELISA assay.
as §1
Dilution factors for both mAb 3D3 and secondary antibody were pre-determined for each batch of antibody to ensure that neither antibody was limiting in the assay.
as §2

[5] = tested on: 87 different targets; assay: Eurofins safetyscreen87 panel (whole panel)
[6] = in vivo; conditions: male, C57BL/6, mouse
[7] = target: COX2 (Homo sapiens (Human), UniProt P35354); assay: Eurofins safetyscreen87 panel; format: biochemical
[8] = in vivo; conditions: male, C57BL/6, mouse; remark: listed apart in the source
[9] = target: PDE3A (Homo sapiens (Human), UniProt Q14432); assay: Eurofins safetyscreen87 panel; format: biochemical
[10] = tested on: Salmonella typhimurium (TA98, TA100, TA97a, and TA1535); assay: mini-Ames assay; conditions: 5 concentrations up to 100 μM, absence or presence of rat liver S9
Method: The compound dissolved in DMSO was evaluated at 5 concentrations up to […] in the absence or presence of metabolic activation (rat liver S9).

[11] = tested on: lipopolysaccharide (LPS)-induced TNF-α model; assay: Lipopolysaccharide (LPS)-induced TNF-α model; format: in vivo, C57BL/6 mice; conditions: intranasally 3, 10, 30 mg/kg and orally 30 mg/kg, 5 days
Method: 12-week-old male C57BL/6 mice were used.
On day 5, one hour after LPS treatment, all animals were euthanized via CO2. The plasma, hippocampus and cortex were collected and immediately stored at liquid nitrogen and transferred to −80° C. Tissues were used for ELISA and Western Blot analysis to determine levels of TNF-α and pTau.

[12] = tested on: 12 transporter proteins including BCRP and PgP; assay: Transporter substrate test (Eurofins panels); format: in vitro ADME
[13] = mouse, in vivo
[14] = target: COX1 (Homo sapiens (Human), UniProt P23219); assay: Eurofins safetyscreen87 panel; format: biochemical
[15] = target: Potassium channel hERG (Homo sapiens (Human), UniProt Q12809); assay: Eurofins safetyscreen87 panel; format: binding; conditions: c=10 μM
[16] = tested on: 8 major CYP enzymes; assay: CYP inhibition in human liver microsomes; format: in vitro ADME; conditions: c=10 μM
Method: Compound 68 was also tested for its inhibitor activity against the 8 major CYP enzymes in human liver microsomes.

[17] = male, C57BL/6, mouse, in vivo
[18] = twice daily intranasal administration, 15 mg/kg
[19] = inhaled or intranasal, 10 mg/kg
[20] = inhaled or intranasal, 30 mg/kg

Chain of DYRK1B (GST tagged full length human DYRK1B isoform p65) (Q9Y463 other isoform, or with tags, fused parts or gaps): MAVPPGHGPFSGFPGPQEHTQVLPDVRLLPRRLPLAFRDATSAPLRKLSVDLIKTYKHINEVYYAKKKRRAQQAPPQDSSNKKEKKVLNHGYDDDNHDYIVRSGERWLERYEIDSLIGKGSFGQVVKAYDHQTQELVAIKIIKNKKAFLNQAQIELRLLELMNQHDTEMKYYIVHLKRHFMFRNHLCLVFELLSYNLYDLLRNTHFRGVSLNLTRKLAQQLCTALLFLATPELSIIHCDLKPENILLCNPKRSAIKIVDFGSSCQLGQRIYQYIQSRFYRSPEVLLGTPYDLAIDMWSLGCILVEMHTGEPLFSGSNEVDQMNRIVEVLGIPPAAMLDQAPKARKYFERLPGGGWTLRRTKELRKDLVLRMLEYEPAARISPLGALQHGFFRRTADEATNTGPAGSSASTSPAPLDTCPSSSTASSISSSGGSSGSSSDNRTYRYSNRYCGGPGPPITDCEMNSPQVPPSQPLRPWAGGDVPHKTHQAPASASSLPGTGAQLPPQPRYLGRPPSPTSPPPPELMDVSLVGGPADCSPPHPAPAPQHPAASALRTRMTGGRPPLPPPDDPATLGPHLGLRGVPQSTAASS
Chain of Potassium channel hERG (Q12809 whole entry): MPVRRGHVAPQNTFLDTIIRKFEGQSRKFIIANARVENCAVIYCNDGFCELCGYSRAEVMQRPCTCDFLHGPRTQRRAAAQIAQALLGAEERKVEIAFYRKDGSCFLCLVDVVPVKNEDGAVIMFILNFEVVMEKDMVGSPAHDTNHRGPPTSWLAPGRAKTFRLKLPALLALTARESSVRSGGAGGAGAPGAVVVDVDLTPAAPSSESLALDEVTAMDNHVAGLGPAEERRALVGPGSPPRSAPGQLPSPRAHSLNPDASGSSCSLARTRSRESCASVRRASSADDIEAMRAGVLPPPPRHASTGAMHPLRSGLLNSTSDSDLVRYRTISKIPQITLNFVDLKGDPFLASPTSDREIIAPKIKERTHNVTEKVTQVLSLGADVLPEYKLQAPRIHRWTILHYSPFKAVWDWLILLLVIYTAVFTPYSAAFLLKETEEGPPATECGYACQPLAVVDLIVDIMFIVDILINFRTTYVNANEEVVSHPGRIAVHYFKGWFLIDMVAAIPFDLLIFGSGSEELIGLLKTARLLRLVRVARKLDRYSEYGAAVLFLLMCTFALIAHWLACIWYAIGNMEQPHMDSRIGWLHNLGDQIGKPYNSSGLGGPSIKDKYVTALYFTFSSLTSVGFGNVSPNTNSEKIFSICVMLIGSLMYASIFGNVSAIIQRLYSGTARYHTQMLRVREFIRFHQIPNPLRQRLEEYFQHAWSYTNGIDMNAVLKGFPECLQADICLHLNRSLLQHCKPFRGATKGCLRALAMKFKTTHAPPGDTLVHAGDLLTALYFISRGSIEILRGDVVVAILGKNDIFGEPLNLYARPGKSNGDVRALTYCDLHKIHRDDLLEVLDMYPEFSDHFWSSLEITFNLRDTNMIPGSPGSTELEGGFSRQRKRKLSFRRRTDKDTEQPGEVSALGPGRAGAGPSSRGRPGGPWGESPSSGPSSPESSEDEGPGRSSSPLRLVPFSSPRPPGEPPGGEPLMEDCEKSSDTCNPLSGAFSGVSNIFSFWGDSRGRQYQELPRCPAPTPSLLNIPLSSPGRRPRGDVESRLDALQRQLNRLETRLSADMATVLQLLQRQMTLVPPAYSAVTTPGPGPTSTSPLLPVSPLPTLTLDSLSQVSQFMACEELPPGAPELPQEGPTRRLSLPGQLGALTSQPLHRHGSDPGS
Chain of PDE3A (Q14432 whole entry): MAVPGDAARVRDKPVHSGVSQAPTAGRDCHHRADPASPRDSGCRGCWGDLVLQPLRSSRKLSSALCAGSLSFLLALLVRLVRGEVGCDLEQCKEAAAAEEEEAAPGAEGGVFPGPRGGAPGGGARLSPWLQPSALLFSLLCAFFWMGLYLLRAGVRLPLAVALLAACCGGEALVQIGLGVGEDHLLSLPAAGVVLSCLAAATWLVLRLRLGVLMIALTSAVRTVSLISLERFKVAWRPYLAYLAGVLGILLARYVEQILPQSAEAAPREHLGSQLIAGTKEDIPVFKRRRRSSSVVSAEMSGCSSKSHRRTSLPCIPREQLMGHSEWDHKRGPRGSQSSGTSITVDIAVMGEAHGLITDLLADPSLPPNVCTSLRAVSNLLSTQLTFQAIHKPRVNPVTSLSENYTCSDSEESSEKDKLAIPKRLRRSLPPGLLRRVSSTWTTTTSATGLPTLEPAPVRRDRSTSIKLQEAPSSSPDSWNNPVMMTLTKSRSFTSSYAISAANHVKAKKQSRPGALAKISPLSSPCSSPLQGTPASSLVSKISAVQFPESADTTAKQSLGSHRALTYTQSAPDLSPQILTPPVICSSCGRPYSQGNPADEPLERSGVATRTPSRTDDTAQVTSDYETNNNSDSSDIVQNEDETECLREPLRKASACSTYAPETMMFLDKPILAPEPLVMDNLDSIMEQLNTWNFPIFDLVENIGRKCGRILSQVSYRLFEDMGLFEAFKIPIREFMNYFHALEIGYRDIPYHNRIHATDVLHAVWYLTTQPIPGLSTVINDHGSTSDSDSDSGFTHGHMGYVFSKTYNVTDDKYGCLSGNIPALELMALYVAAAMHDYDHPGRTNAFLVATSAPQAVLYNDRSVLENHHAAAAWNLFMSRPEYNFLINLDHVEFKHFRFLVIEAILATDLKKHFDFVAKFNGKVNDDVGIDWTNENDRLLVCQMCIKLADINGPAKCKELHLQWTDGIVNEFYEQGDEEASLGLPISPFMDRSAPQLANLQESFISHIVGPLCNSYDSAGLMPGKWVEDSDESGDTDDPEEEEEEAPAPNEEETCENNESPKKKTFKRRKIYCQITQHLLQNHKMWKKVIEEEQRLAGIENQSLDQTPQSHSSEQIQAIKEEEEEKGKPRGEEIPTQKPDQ
Chain of COX2 (P35354 18-604): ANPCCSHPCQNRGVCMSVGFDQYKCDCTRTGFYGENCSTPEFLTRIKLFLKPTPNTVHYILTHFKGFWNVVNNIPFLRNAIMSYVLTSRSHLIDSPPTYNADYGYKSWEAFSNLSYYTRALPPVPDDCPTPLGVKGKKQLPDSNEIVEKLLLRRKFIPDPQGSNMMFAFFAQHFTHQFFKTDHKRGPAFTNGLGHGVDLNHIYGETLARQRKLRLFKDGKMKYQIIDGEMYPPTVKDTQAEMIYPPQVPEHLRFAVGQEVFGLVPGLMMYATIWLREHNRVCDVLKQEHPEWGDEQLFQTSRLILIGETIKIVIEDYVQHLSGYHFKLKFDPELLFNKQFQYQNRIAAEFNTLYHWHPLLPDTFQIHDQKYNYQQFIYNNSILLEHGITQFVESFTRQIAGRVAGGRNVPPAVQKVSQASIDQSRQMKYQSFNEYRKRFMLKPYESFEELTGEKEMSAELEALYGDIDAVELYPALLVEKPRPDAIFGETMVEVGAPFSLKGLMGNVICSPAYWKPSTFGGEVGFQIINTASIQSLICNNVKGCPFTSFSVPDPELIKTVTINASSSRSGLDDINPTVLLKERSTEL
Chain of COX1 (P23219 24-599): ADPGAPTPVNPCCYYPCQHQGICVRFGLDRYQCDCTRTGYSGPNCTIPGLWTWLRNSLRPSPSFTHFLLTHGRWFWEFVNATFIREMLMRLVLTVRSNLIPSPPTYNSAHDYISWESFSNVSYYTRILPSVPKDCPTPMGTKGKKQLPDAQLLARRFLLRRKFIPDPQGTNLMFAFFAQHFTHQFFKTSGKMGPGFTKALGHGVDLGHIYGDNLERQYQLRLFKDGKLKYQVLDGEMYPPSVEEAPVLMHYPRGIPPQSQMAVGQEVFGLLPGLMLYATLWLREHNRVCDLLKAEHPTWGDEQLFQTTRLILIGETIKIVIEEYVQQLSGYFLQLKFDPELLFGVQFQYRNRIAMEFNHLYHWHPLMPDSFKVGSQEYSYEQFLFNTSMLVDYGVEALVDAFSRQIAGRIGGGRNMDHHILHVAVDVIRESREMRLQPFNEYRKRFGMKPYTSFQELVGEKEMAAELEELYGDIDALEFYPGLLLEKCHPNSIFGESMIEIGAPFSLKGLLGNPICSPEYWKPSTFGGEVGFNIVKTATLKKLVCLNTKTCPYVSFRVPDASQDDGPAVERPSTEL
Chain of DYRK2 (Q92630 whole entry, species assumed): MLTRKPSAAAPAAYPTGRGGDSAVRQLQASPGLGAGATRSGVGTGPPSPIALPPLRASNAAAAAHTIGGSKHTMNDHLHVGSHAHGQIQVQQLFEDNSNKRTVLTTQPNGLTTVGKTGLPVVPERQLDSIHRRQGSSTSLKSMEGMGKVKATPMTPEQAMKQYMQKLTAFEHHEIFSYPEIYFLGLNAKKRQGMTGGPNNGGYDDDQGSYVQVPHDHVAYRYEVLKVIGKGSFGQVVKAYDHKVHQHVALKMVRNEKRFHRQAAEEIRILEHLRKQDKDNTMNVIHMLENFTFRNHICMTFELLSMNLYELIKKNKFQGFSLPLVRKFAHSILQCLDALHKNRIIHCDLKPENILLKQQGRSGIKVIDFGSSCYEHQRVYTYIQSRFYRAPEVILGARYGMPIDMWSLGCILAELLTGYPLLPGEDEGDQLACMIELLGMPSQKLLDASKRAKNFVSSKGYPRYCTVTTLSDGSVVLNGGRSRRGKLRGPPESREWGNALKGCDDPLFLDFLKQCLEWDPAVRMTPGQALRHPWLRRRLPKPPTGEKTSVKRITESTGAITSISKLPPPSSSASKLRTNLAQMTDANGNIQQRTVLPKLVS

For `COc1cc(N2CCN(C)CC2)ccc1Nc1nccc(-c2cn(C)c3cnccc23)n1` [AZ-191], the pIC50 [1] is given as 5.72.

In the case of `O=C(O[C@@H]1Cc2c(O)cc(O)cc2O[C@H]1c1cc(O)c(O)c(O)c1)c1cc(O)c(O)c(O)c1F` [Compound 40, (2S,3R)-5,7-dihydroxy-2-(3,4,5-trihydroxyphenyl)chroman-3-yl 2-fluoro-3,4,5-trihydroxybenzoate], the “axons and myelin during chronic EAE” value ([2]; Bielschowsky silver staining (neurofilaments), LFB staining (myelin)) was “preserved axons and myelin”, the “spinal cord inflammation, hematoxylin and eosin staining” value ([2]; compared to the vehicle control group) was “significant spinal cord inflammation reductions” and the “lesion severity scores, histopathology of spinal cord section” value ([2]; treated intranasally, compared to the other treatment groups, FIG. 2) was “significant (p<0.001) reductions in lesion severity scores”. For the same compound, the “reduction of brain IFNγ” value [2, 18] was 90%, the “reduction of brain IL-17” value [2, 18] was 79% and the “effect on disease course (EAE)” value ([2]; twice daily intranasal administration, 15 mg/kg, FIG. 1) was “reversal of the disease”. The pIC50 [3] was > 7.00 and the pIC50 [4] was > 7.00.

In the case of `O=C(O[C@@H]1Cc2c(O)cc(O)cc2O[C@H]1c1cc(O)c(O)c(O)c1)c1c(F)c(O)c(O)c(O)c1F` [Compound 51, (2S,3R)-5,7-dihydroxy-2-(3,4,5-trihydroxyphenyl)chroman-3-yl 2,6-difluoro-3,4,5-trihydroxybenzoate], the pIC50 [3] was > 7.00 and the pIC50 [4] was > 7.00.

For `O=C(O[C@@H]1Cc2c(O)cc(O)cc2O[C@H]1c1ccc(O)c(O)c1)c1cc(O)c(O)c(O)c1F` [Compound 55, (2S,3R)-2-(3,4-dihydroxyphenyl)-5,7-dihydroxychroman-3-yl 2-fluoro-3,4,5-trihydroxybenzoate], the pIC50 [3] was < 7.00 and the pIC50 [4] was > 7.00.

With `COc1cc(C(=O)O[C@@H]2Cc3c(O)cc(O)cc3O[C@H]2c2cc(O)c(O)c(O)c2)c(F)c(O)c1O` [Compound 68, (2S,3R)-5,7-dihydroxy-2-(3,4,5-trihydroxyphenyl)chroman-3-yl 2-fluoro-3,4-dihydroxy-5-methoxybenzoate] the “activity against other ion channels” value ([5]; c=10 μM) was “No activity”, the “profile over 87 different targets” value ([5]; screened at c=10 µM, significant activity only against COX1, COX2, PDE3A) was “very clean profile” and the CL/F ([6]; 30 mg/kg) was 842 mL/min/kg. It also gave a Vd/F ([6]; 30 mg/kg) of 17.1 L/kg, an AUC(0-inf) [6, 19] of 716 ng·h/mL and an AUC(0-t) [6, 19] of 702 ng·h/mL. The CL/F [6, 19] was 240 mL/min/kg, the Cmax [6, 19] was 489 ng/mL and the Vd/F [6, 19] was 41.7 L/kg. For the same compound, the bioavailability [6, 19] was > 100%, the AUC(0-inf) [6, 20] was 4990 ng·h/mL and the AUC(0-t) [6, 20] was 4950 ng·h/mL. For the same compound, the Cmax [6, 20] was 3140 ng/mL, the bioavailability [6, 20] was > 100% and the AUC(0-inf) ([6]; iv, 5 mg/kg) was 348 ng·h/mL. It also gave an AUC(0-t) ([6]; iv, 5 mg/kg) of 334 ng·h/mL, a Cmax ([6]; iv, 5 mg/kg) of 257 ng/mL and a Vd ([6]; iv, 5 mg/kg) of 22 L/kg. The clearance ([6]; iv, 5 mg/kg) was 240 mL/min/kg, the AUC(0-inf) ([6]; po, 30 mg/kg) was 92 ng·h/mL and the AUC(0-t) ([6]; po, 30 mg/kg) was 78 ng·h/mL. The CL/F ([6]; po, 30 mg/kg) was 100 mL/min/kg, the Cmax ([6]; po, 30 mg/kg) was 41 ng/mL and the Vd/F ([6]; po, 30 mg/kg) was 602 L/kg. The bioavailability ([6]; po, 30 mg/kg) was 4%, the pIC50 [7] was 6.74 and the concentration at 1 h [8] was 120 ng/g. The pIC50 [3] was > 7.00, the pIC50 [9] was 6.42 and the cytotoxicity in bacteria [10] was “No evidence of cytotoxicity”. The mutagenicity [10] was “not mutagenic”, the “lipopolysaccharide-induced expression of TNF-alpha” value ([11]; hippocampus and plasma, ELISA, FIGS. 3-4) was “inhibit” and the “lipopolysaccharide-induced pTau” value ([11]; hippocampus, Western Blot (AT8 antibody), FIG. 5) was “inhibit”. For the same compound, the “substrate of transporter proteins” value [12] was “not a substrate of any of them”, the T1/2 ([13]; inhaled or intranasal) was 1.06 H and the T1/2 [13, 20] was 1.97 H. For the same compound, the T1/2 ([13]; iv, 5 mg/kg) was 1.04 H, the T1/2 ([13]; po, 30 mg/kg) was 1.27 H and the pIC50 [14] was 5.92. The pIC50 [4] was > 7.00, the “activity against the Potassium channel hERG” value [15] was “No activity” and the “inhibition of the CYP enzymes” value [16] was “no inhibition”. The “time measurable in whole-brain homogenate after dosing” value [17] was 4 h.
